Biological target: T1, human protease activated receptor 1 (PAR-1) (Homo sapiens, UniProt P25116)
T1 construct: the cell stably expresses the endogenous human PAR-1 receptor; endogenous in cells; host or cells: HEK293-derived recombinant cell line that constitutively expresses mitochondrial aequorin
T1 sequence (P25116 22-425): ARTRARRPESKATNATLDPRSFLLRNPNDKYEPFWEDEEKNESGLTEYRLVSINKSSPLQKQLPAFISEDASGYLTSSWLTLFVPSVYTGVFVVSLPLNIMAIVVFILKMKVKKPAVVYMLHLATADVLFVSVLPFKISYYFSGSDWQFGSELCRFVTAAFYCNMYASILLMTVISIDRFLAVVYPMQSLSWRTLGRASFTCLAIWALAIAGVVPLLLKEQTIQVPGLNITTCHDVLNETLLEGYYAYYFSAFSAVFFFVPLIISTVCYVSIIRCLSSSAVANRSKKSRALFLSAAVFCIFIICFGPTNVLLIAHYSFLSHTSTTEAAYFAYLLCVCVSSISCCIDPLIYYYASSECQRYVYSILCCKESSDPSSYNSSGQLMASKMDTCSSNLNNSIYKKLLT
Experiment: Cellular functional in vitro test (aequorin luminescence, PAR-1 test cell)
Format: cell-based
Details: recombinant HEK293-derived cell line expressing aequorin; PAR-1 agonist at EC50; calcium-dependent luminescence
Source text: 1.a) Cellular Functional In Vitro Test
A recombinant cell line is used to identify antagonists of the human protease activated receptor 1 (PAR-1) and to quantify the activity of the substances described herein. The cell is originally derived from a human embryonal kidney cell (HEK293; ATCC: American Type Culture Collection, Manassas, Va. 20108, USA). The test cell line constitutively expresses a modified form of the calcium-sensitive photoprotein acquorin which, after reconstitution with the cofactor coelenterazine, emits light when the free calcium concentration in the inner mitochondrial compartment is increased (Rizzuto R, Simpson A W, Brini M, Pozzan T.; Nature 1992, 358, 325-327). Additionally, the cell stably expresses the endogenous human PAR-1 receptor and the endogenous purinergic receptor P2Y2. The resulting PAR-1 test cell responds to stimulation of the endogenous PAR-1 or P2Y2 receptor with an intracellular release of calcium ions, which can be quantified through the resulting acquorin luminescence with a suitable luminometer (Milligan G, Marshall F, Rees S, Trends in Pharmacological Sciences 1996, 17, 235-237). […]
Test procedure: The cells are plated out two days (48 h) before the test in culture medium (DMEM F12, supplemented with 10% FCS, 2 mM glutamine, 20 mM HEPES, 1.4 mM pyruvate, 0.1 mg/ml gentamycin, 0.15% Na bicarbonate; BioWhittaker Cat.#BE04-687Q; B-4800 Verviers, Belgium) in 384-well microtitre plates and kept in a cell incubator (96% atmospheric humidity, 5% v/v CO2, 37° C.). […] The test substances are then pipetted onto the microtitre plate, and 5 minutes after the transfer of the test substances into the wells of the microtitre plate the plate is transferred into the luminometer, a PAR-1 agonist concentration which corresponds to EC50 is added and the resulting light signal is immediately measured in the luminometer. To distinguish an antagonist substance action from a toxic action, the endogenous purinergic receptor is immediately subsequently activated with agonist (ATP, final concentration 10 μM) and the resulting light signal is measured.

IC50 [nM]	SMILES
1.9	COc1ccccc1-c1ccc(/C=C/C2CC(c3ccc(C(F)(F)F)cc3)CN(C(=O)N3CCOCC3)C2)nc1 (racemic) [Example 7, (3-{(E)-2-[5-(2-Methoxyphenyl)pyridin-2-yl]vinyl}-5-[4-(trifluoromethyl)phenyl]piperidin-1-yl)-(morpholin-4-yl)methanone]
2.2	O=C(N1CCOCC1)N1CC(/C=C/c2ccc(-c3cccc(Cl)c3)cn2)CC(c2ccc(C(F)(F)F)cc2)C1 (racemic) [Example 9, (3-{(E)-2-[5-(3-Chlorophenyl)pyridin-2-yl]vinyl}-5-[4-(trifluoromethyl)phenyl]piperidin-1-yl)-(morpholin-4-yl)methanone]
2	O=C(N1CCOCC1)N1CC(/C=C/c2ccc(-c3cccc(C(F)(F)F)c3)cn2)CC(c2ccc(C(F)(F)F)cc2)C1 (single isomer, unassigned) [Example 5, Morpholin-4-yl{3-[4-(trifluoromethyl)phenyl]-5-[(E)-2-{5-[3-(trifluoromethyl)phenyl]pyridin-2-yl}vinyl]piperidin-1-yl}methanone]
